Counter-ions that a name gives are not always drawn. Like-named read-outs stand apart in the source and are kept apart here.
Type: in vivo
Conditions: 5 mg/kg on the basis of DOPA, into the femoral vein, SD rats
Protocol: The distribution and residence in brain of the compounds according to the present invention were evaluated as follows.
Blood samples were taken out from abdominal aorta after a certain period of […]. Immediately after the exsanguination, whole brain was removed. Experiments were carried out with 3 rats at each blood sampling point.
The DOPA concentration in the whole brain was determined in accordance with the method "New Biochemical Experiment Course, Vol. 11, Neurobiochemistry,p. 289-290 (edited by Biochemical Society, Japan, published by Tokyo Kagaku-Dojin, 1990)." As the controls, the Boc-eliminated Compound D and DOPA were administered in the same manner as above to determine the DOPA concentration.

| SMILES | Area under the curve of concentration (AUC) of DOPA in brain (Time 0-4 hr) | Area under the curve of concentration (AUC) of DOPA in brain (Time 0-2 hr) |
| --- | --- | --- |
| CC(=C(CCOC(=O)[C@@H](N)Cc1ccc(OC(=O)C(C)(C)C)c(OC(=O)C(C)(C)C)c1)SSC(C)C)N(C)C=O [3 (b)] | 82476 ng·min/g |  |
| C/C(=C(\CCOC(=O)C(N)Cc1ccc(OC(=O)C(C)(C)C)c(OC(=O)C(C)(C)C)c1)SSCC1CCCO1)N(C=O)Cc1cnc(C)nc1N (stereo not drawn) [29 (b), N-[(4-amino-2-methyl-5-pyrimidyl)methyl]-N-[4-[2-amino-3-(3,4-dipivaloyloxyphenyl)propionyl]oxy-1-methyl-2-[(tetrahydrofurfuryl)dithio]-1-butenyl]formamide] | 7151 ng·min/g | 6659 ng·min/g |
| C=CCSS/C(CCOC(=O)C(N)Cc1ccc(OC(=O)C(C)(C)C)c(OC(=O)C(C)(C)C)c1)=C(/C)N(C=O)Cc1cnc(C)nc1N (stereo not drawn) [35 (b), N-[(4-amino-2-methyl-5-pyrimidyl)methyl]-N-[4-[2-amino-3-(3,4-dipivaloyloxyphenyl)propionyl]oxy-1-methyl-2-[(2-propenyl)dithio]-1-butenyl]formamide] | 10626 ng·min/g |  |
| CC(C)(C)C(=O)Oc1ccc(C[C@H](N)C(=O)O)cc1OC(=O)C(C)(C)C [Boc-elimination of Compound D, reference compound] | 3277 ng·min/g | 3169 ng·min/g |
| N[C@@H](Cc1ccc(O)c(O)c1)C(=O)O [DOPA, 3,4-dihydroxy phenylalanine, reference compound] | 6035 ng·min/g | 6035 ng·min/g |
| C/C(=C(\CCOC(=O)C(N)Cc1ccc(OC(=O)C(C)(C)C)c(OC(=O)C(C)(C)C)c1)SSC(C)C)N(C=O)Cc1cnc(C)nc1N (stereo not drawn) [Example 30 (b), N-[(4-amino-2-methyl-5-pyrimidyl)methyl]-N-[4-[2-amino-3-(3,4-dipivaloyloxyphenyl)propionyl]oxy-1-methyl-2-[(2-propyl)dithio]-1-butenyl]formamide hydrochloride] |  | 34595 ng·min/g |

Reference: patent US5580904A, “Formamido and carboxyamido compounds which can be retained in brain” (Drug Delivery System Institute, Ltd., priority 1992, dated 1996)
